Results from article PMC6384703, “Astilbin Inhibits the Activity of Sortase A from Streptococcus mutans” (Molecules, 2019).

Target: T1, sortase A (SrtA) (Streptococcus mutans, UniProt Q8CM62)
T1 construct: His-tagged recombinant SrtA from a 741 bp DNA fragment (pET28SmsrtA), S. mutans ATCC 25175
Test: FRET assay with purified SrtA and fluorescent peptide Abz-LPATG-Dap(Dnp)-NH2; supported by mutants with reduced inhibition
Type: biochemical

T1 sequence (Q8CM62 entry or part of it): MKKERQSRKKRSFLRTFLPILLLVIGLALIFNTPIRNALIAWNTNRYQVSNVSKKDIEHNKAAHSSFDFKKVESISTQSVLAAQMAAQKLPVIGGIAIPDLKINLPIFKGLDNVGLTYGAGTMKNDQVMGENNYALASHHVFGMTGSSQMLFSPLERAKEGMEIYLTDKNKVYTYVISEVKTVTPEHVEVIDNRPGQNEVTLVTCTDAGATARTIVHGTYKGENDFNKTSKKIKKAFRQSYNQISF

C[C@@H]1O[C@@H](O[C@H]2C(=O)c3c(O)cc(O)cc3O[C@@H]2c2ccc(O)c(O)c2)[C@H](O)[C@H](O)[C@H]1O [astilbin]
IC50: 16.7 µM
